Results on 6 compounds are retold here after patent US9273042B2, “5-amino[1,4]thiazines as BACE 1 inhibitors” (Hoffmann-La Roche Inc., priority 2012, dated 2016).

BACE1, sequence (P56817 46-501): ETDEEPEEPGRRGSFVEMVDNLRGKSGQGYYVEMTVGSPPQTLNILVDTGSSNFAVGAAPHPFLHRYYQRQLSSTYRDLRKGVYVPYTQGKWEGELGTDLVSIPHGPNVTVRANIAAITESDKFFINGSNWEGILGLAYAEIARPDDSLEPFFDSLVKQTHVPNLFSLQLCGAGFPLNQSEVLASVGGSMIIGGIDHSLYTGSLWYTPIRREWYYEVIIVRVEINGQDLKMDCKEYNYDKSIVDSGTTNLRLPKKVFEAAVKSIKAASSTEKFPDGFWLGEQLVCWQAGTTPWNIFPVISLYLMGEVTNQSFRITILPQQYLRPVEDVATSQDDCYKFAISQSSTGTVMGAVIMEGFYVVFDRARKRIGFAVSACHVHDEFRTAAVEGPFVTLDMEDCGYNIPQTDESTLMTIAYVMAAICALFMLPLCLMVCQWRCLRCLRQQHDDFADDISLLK

The target of the assay is BACE1 (Homo sapiens (Human), UniProt P56817). Briefly: Cellular Aβ-lowering assay (Abeta 40 AlphaLISA). The format is cell-based. The note with it: HEK293 APP cells, 18-20 hrs incubation, Aβ 40 in culture supernatants; read-out: BACE1 cell act. Aβ40, IC50. The method, then: Cellular Aβ-Lowering Assay:
The Abeta 40 AlphaLISA Assay can be used. The HEK293 APP cells were seeded in 96 well Microtiter plates in cell culture medium (Iscove's, plus 10% (v/v) fetal bovine serum, penicillin/streptomycin) to about 80% confluency and the compounds were added at a 3× concentration in ⅓ volume of culture medium (final DMSO concentration was kept at 1% v/v). After 18-20 hrs incubation at 37° C. and 5% CO2 in a humidified incubator, the culture supernatants were harvested for the determination of Aβ 40 concentrations using Perkin-Elmer Human Amyloid beta 1-40 (high specificity) Kit (Cat#AL275C).
In a Perkin-Elmer White Optiplate-384 (Cat#6007290), 2 ul culture supernatants were combined with 2 μl of a 10× AlphaLISA Anti-hAβAcceptor beads+Biotinylated Antibody Anti-Aβ 1-40 Mix (50 μg/mL/5 nM). After 1 hour room temperature incubation, 16 μl of a 1.25× preparation of Streptavidin (SA) Donor beads (25 μg/mL) were added and incubated for 30 minutes in the Dark. Light Emission at 615 nm was then recorded using EnVision-Alpha Reader. Levels of Aβ 40 in the culture supernatants were calculated as percentage of maximum signal (cells treated with 1% DMSO without inhibitor). The IC50 values were calculated using the Excel XLfit software.
As to `C[C@@]1(c2cc(NC(=O)c3ccc(C#N)cn3)ccc2F)CSCC(N)=N1` [Example 1, (R)—N-(3-(5-amino-3-methyl-3,6-dihydro-2H-1,4-thiazin-3-yl)-4-fluorophenyl)-5-cyanopicolinamide], the IC50 turned out to be 11 nM.
Under `C[C@@]1(c2cc(NC(=O)c3ccc(C#N)cn3)ccc2F)CS(=O)(=O)CC(N)=N1` [Example 2, 5-Cyano-pyridine-2-carboxylic acid [3-((R)-5-amino-3-methyl-1,1-dioxo-1,2,3,6-tetrahydro-1λ6-[1,4]thiazin-3-yl)-4-fluoro-phenyl]-amide] stands 8.2 nM.
To `C[C@@]1(c2cc(NC(=O)c3ccc(Cl)cn3)ccc2F)CS(=O)(=O)CC(N)=N1` [Example 3, 5-Chloro-pyridine-2-carboxylic acid [3-((R)-5-amino-3-methyl-1,1-dioxo-1,2,3,6-tetrahydro-1λ6-[1,4]thiazin-3-yl)-4-fluoro-phenyl]-amide] belongs 6.1 nM; to `C[C@@]1(c2cc(NC(=O)c3ccc(OC(F)F)cn3)ccc2F)CS(=O)(=O)CC(N)=N1` [Example 4, 5-Difluoromethoxy-pyridine-2-carboxylic acid [3-((R)-5-amino-3-methyl-1,1-dioxo-1,2,3,6-tetrahydro-1λ6-[1,4]thiazin-3-yl)-4-fluoro-phenyl]-amide], 5.7 nM.
To `CC1(C)C(N)=N[C@](C)(c2cc(NC(=O)c3ccc(C#N)cn3)ccc2F)CS1(=O)=O` [Example 6, 5-Cyano-pyridine-2-carboxylic acid [3-((R)-5-amino-3,6,6-trimethyl-1,1-dioxo-1,2,3,6-tetrahydro-1λ6-[1,4]thiazin-3-yl)-4-fluoro-phenyl]-amide] belongs 0.2 nM.
As for `C[C@@]1(c2cc(NC(=O)c3ccc(C#N)cn3)ccc2F)CS(=O)(=O)C2(CCCC2)C(N)=N1` [Example 9, 5-Cyano-pyridine-2-carboxylic acid [3-((R)-10-amino-8-methyl-6,6-dioxo-6λ6-thia-9-aza-spiro[4.5]dec-9-en-8-yl)-4-fluoro-phenyl]-amide], the IC50 is 1 nM.

Usually IC50 stands for the midpoint of a concentration-inhibition curve.
